A melting point compilation (Tetko et al.; mined from patent text by program, amines drawn as free bases though some values may be those of a salt)

SMILES	melting point
O=C(Cc1cccc2ccccc12)NCc1cccc2c1C(=O)N(C1CCC(=O)NC1=O)C2=O (configuration not stated)	187 to 189 °C
O=C(O)c1ccc(CCOCCCCCCBr)cc1	85 to 87.5 °C
CCOc1cc(OCC)c2c(C)c(CCO)c(=O)oc2c1	117 to 119 °C
O=C1C(O)N=C(c2ccccc2F)c2ccccc2N1C1CCNCC1 (configuration not stated)	190 to 192 °C
CCOC(=O)C=C(C)C=CC=C(C)C=Cc1c(Cl)cc(OC)c(Cl)c1Cl	126 to 128 °C
CSc1sc(-c2nnc(C)o2)c2c1C(=O)CC(C)(C)C2	186 to 188 °C
O=C1C(=O)c2ccccc2C2=C1SCC1(CCN(C3CCCCC3)CC1)O2	195 to 196 °C
CCOc1ccc(Nc2cccc3ccccc23)cc1	73 to 75 °C
O=C1NC(=O)C(O)(c2c[nH]c3ccc(Br)cc23)C(=O)N1	> 250 °C
COC(=O)CCCc1cc2c(Nc3cc(OC)c(OC)c(OC)c3)c(C#N)cnc2s1	101 to 103 °C
CC(=O)N1CCN=C1Nc1c(C)c(C)nn1C	212 to 215 °C
CN(C)CCNc1ccc(NC(=O)Nc2ccc(Oc3ccccc3)cc2)cc1[N+](=O)[O-]	178 to 180 °C
CCOC(=O)C(=Cc1cccn2cc(-c3ccccc3)nc12)N=[N+]=[N-]	136 to 138 °C
C=CCc1c(N2C(=O)C3=C(CCCC3)C2=O)ccc(Cl)c1O	80 to 82.5 °C
COc1ccc(Nc2ccc(Nc3nc(C)nc4cc(-c5ccccc5)sc34)cc2)cc1	181 to 185 °C
CCOC(=O)C1=C(C)Nc2nccn2C1C (configuration not stated)	185 to 186 °C
CC(=O)Nc1ccc(CBr)c(C)c1C#N	152 to 153 °C
COCCN(C)Cc1cc(C(=O)Nc2nc3c(OC)ccc(C4COCCOC4)c3s2)ccn1	100 to 107 °C
OCCCc1cnoc1-c1ccc(Cl)c(Cl)c1	66 to 67 °C
Nc1ncnc2c1c(-c1ccc(Oc3ccccc3)cc1)cn2C1CCC(=O)CC1	252 to 254 °C

SMILES	melting point
C=CC1CN(c2ncc(C(=O)N(C)c3cccc(C(F)(F)F)c3)c(N)n2)C(=O)N1 (configuration not stated)	203 to 204 °C
Nc1nc(N)c2ncn([C@H]3C=C[C@@H](O)C3)c2n1 (racemic)	167 to 170 °C
CC(=O)NC(=S)NC1CC2c3cccc4[nH]cc(c34)CC2N(C)C1 (configuration not stated)	240 to 242 °C
CC(C)(C)NC(CCOc1cccc2c1CC(=O)N2)OC(=O)Cc1ccccc1 (configuration not stated)	112 to 115 °C
CC(C#N)=C1CCN(c2ccc(N3C[C@H](CNC(=O)C(Cl)(Cl)Cl)OC3=O)cc2F)CC1	166 to 168 °C
O=C(O)c1ccccc1-n1nc(-c2ccccc2O)nc1-c1ccccc1O	132 to 138 °C
N#CC(=Cc1ccc(CBr)cc1)S(=O)(=O)c1ccccc1	120 to 122 °C
CC(NC(=O)CCCBr)c1ccccc1 (configuration not stated)	62 to 63 °C
OCc1cnc2sc3c(n12)CCCC3	182 to 183 °C
Cc1oc(-c2ccccc2)nc1CCc1ccc(CO)cc1	103 to 104 °C
CC1(C)Cc2ccc(C#N)cc2N(C(=O)NCc2ccccc2)C1	162 to 163 °C
Cc1nc(OCC#N)c(C#N)c(N2CCc3ccccc3CC2)n1	68 to 74 °C
CCCC(=O)c1c(C)cc(C)cc1O	48 to 52 °C
CC(C)[C@@H](CO)C[C@H](O)[C@H](CC1CCCCC1)NC(=O)OCc1ccccc1	113 to 114 °C
Cc1c(Nc2c(C#N)cncc2-c2coc(CN3CCN(C)CC3)c2)ccc2[nH]ccc12	129 °C
CCCCOC(=O)C=Cc1c(-c2ccccc2)nn2ccccc12	80 to 82 °C
C/C=C/c1cc2c(s1)[C@@H](OC(C)=O)[C@H](OC(C)=O)C[C@]2(OC(C)=O)C(=O)OC	140 to 143 °C
CN1CCCC(c2cccc3ccc(N)cc23)C1 (configuration not stated)	117 to 120 °C
O=C(/C=C/c1cccc(C(F)(F)F)c1)NC1CC1	98 °C
O=C(CC(=O)C1CC1)Nc1ccc(C(F)(F)F)cc1	131 to 132 °C

Results, then the compound that gave them:

melting point	SMILES
130 to 132 °C	CCn1ncc2c(NCc3ccccc3)c3ccccc3nc21
124 to 127 °C	CCOC(=O)C1=Cc2cc(-c3ccc(OCC)cc3)ccc2OCC1
270 to 275 °C	CS(=O)(=O)Oc1ccc2c(=O)c(C(=O)O)cn3c2c1CCC3
125 to 127 °C	CS(=O)(=O)c1ccc(-n2nc(C(F)(F)F)cc2-c2ccc(-c3cscn3)cc2)cc1F
83 to 85 °C	O=C(COCc1ccc(Cl)cc1Cl)c1ccccc1
138 °C	COc1cc(CN[C@@H](C(=O)N[C@H](C(=O)NCc2ccc(OC)cc2O)C(C)C)[C@H](O)[C@H](Cc2ccccc2)NC(=O)OC(C)(C)C)cc(OC)c1
129 to 130 °C	Cc1cc(CCCOc2c(C)cc(C(=N)NO)cc2C)on1
123 to 124 °C	Cc1cc(Oc2ncc(C(F)(F)F)cc2Cl)nn1C(=O)Nc1cccc(C(F)(F)F)c1
134 to 142 °C	Cc1noc(NS(=O)(=O)c2ccccc2-c2ccc(-c3ncco3)cc2CN(C)C(=O)c2ccc(Cl)cc2Cl)c1C
148 to 150 °C	O=C(C=NO)Nc1ccc(F)c(F)c1
194 to 198 °C	CCOC(=O)c1cn(NCC=O)c2cc(-n3cccc3)c(F)cc2c1=O
232 to 233 °C	CC(=O)Nc1c(C(=O)c2cc(F)cc(F)c2)[nH]c2cc(Cl)ccc12
112 to 114 °C	Cn1nc(-c2c(F)cccc2Cl)nc1-c1cccc([N+](=O)[O-])c1Cl
85 °C	CC1(C)CC(=O)c2c(NCCCn3ccnc3)sc(-c3cc[nH]n3)c2C1
284 to 287 °C	O=c1[nH]c2cc(Cl)ccc2c(=O)cc1NCCc1ccccc1
299 to 300 °C	CCn1cc(C(=O)O)c(=O)c2cc(F)c(N3CCCC3)nc21

melting point	SMILES
86.7 to 88.6 °C	CC(C)Cn1nc(-c2ccc(F)cc2F)cc(COS(C)(=O)=O)c1=O
238 to 240 °C	O=C(O)COc1ccc2c(-c3cc([N+](=O)[O-])ccc3F)noc2c1Cl
> 300 °C	O=c1c2cccnc2[nH]c2ccnn12
268 °C	O=c1n(CO)c2cccnc2n1-c1ccc2c(c1)OCO2
108 to 110 °C	Cc1c(C)c2c(c(C)c1NC(=O)CC(C)C)C(O)(c1ccc3ccccc3c1)C(C)(C)O2 (configuration not stated)
59 to 61 °C	COC(=O)CSC(C)c1ccc(-c2ccc(OC)cc2)cc1 (configuration not stated)
198 to 199 °C	COc1cccc2c(=O)n3c(C)c(Br)sc3nc12
113 to 114 °C	Cc1nc(COc2ccc(Cn3cc(CCC(=O)O)c(-c4ccccc4)c3)cc2)cs1
193 to 195 °C	CC(=O)NC[C@H]1CN(c2ccc(C3CCN(c4nnc(C)s4)CC3)c(F)c2)C(=O)O1
148 °C	O=S(=O)(c1ccc(Oc2cncc(Br)c2)cc1)N1CCCC1
93 to 96 °C	COc1ccc(S(=O)(=O)C(C)(Cc2ccccc2Br)C(=O)NO)cc1 (configuration not stated)
165 to 166 °C	CCC(CC)c1ccc(Cl)c2[nH]c(=O)n(C)c12
202 to 203 °C	Cc1ccc(Cc2cnc(NCCCCNc3ncc(Cl)cc3C)[nH]c2=O)cn1
118 to 119 °C	COC(=O)Cc1cn(Cc2ccccc2)nc1O
90 to 91 °C	C[C@H](C#Cc1ccc(COCc2ccc(F)cc2)s1)N(O)C(N)=O
156 to 157 °C	Cn1nccc1NC(=O)N1CCN(c2nc(-c3ccccc3F)cs2)CC1
